Values joined by “and” are separate entries in the source; they are usually repeats but may differ in a detail not shown here. Equal entries are not always repeated.
Columns and labels:
[1] = tested on: LNCaP target cells and reporter cells with CD16a-158V/V variant; test: ADCC reporter assay; assay type: cell-based, human
Protocol: In one example, LNCaP cells (human prostate cancer derived, ATCC: CRL-1740) were detached and re-suspended in 1% BSA in RPMI. Cell solution was filtered to remove cell aggregate (polystyrene tube with cell strainer, Corning: 352235) before being counted (Life Technologies Countless II cell counter) and plated (10,000 cells in 25 μL/well; Corning plates: 3917). The plated was centrifuged (5 min, 300×g) and the compound solutions (25 μL/well) were added immediately after. The antibody solutions (25 μL/well, IgG1 FC-Thermo Fisher: 10702HNAH5; Dintrophenyl-KLH polyclonal antibody-Thermo Fisher: A-6430) were added following a 45 min incubation at 37° C. The plate was then incubated with the antibody solution for 45 min to allow for cell-ARM-antibody ternary complex formation before the addition of the effector cells (60 K in 25 μL/well, ADCC reporter cells—Promega kit: G7018). The plate was centrifuged (5 min, 300×g) and effector cells were incubated for an 5 h at 37° C. Following the induction period the plate was equilibrated to 25° C. followed the addition of the luciferase substrate (75 μL/well, 1 vial in 10 mL of Bio-Glo assay buffer, Promega kit: G7018). The plate was then centrifuged (5 min, 300×g) and the luminescence was measured (Biotek Synergy H1 microplate reader).
An example set of data are present below:
LNCaP target cells and reporter cells with CD16a-158V/V variant

[2] = tested on: LNCap cells; test: Ternary complex formation of ARM, antibody and target cells (flow cytometry); assay type: cell-based, human; conditions: 20 ug/ml rabbit anti-DNP Alexa 488, 4 C 30 min, mean fluorescence
Protocol: Various technologies are suitable for assessing complex formation. One example such assay was described below. Those skilled in the art appreciate that one or more parameters and/or conditions may be adjusted and other assays/reagents/conditions, etc., can also be utilized.
Adherent cells (LNCap, CRL-1740, for example results below) were harvested using Accumax (Sigma-Aldrich A7089-100 ml). Compounds were diluted in DMSO (MP 191418) to 1000× the starting concentration used in the assay into a 96 well polypropylene plate (Corning 3357). They were then serially diluted in ½ log increments to generate 8-12 concentrations in DMSO (assay dependent). These DMSO stocks were then step diluted 1/10 into PBS (VWR Cat. #20012043). The step diluted compound range was then added into the polypropylene assay plate 1/100 the volume of the assay volume. The cells used for the assay were counted and centrifuged and resuspended at a concentration of 100,000 cells per 200 ul in Flow buffer: 1% BSA (American Bio AB01088-00100); 0.5 mM EDTA (VWR 45001-122); PBS (VWR Cat. #20012043) with 20 ug/ml rabbit anti-DNP Alexa 488 (Thermo Fisher Scientific A11097). The cells were then added into the polypropylene plate with the step diluted compounds and incubated at 4 C 30 min. At the end of the incubation, the cells were centrifuged and washed 2× with Flow buffer containing 0.5% Tween 20 (BP337-500). Samples were analyzed on a BD FacsCelesta. Mean fluorescence was analyzed using Graphpad Prism and curves were fit using log (inhibitor) vs. response-Variable slope (four parameters).

[3] = tested on: non-CIML NK cells; test: NK cell fratricide assay, non-CIML control NK cells; assay type: cell-based; conditions: daratumumab treatment, 2 hr
Protocol: (§1) PBMC isolation: Leukopheresis product from a donor with body mass index (BMI) between 19-25, under 50 years old, not on immuno-suppressive drugs for at least 2 weeks with an estimated PBMC cell count of >10^10 was obtained from Key Biologics (subject ID 20982200) and transported at ambient temperature. Leukopheresis bag was wiped down with 70% EtOH, a small slit was made and contents were pipetted off into tubes. Leukopak contents were diluted 1:1 with PBS without Ca++/Mg++ and 20 ml of this mixture was layered on top of 25 mL of Ficoll. Tubes were then centrifuged at 400 g for 30 minutes without brakes. PBMCs were harvested from the interface into separate tubes, and tubes were filled to 50 mL with PBS. Cells were centrifuged for 10 min at 120 g to get rid of platelets. Supernatant was poured off and cells were re-suspended in RPMI 10% FBS at a concentration of 7-10×10^6 cells/ml. Cells were cultured overnight at 37C in a 5% CO2 atmosphere until NK cell isolation.
NK cell isolation: PBMC were centrifuged at 400 g for 10 min and re-suspended in EasySep buffer. NK cells were isolated using NK cell isolation kits from STEMCELL Technologies according to kit's manufacturers' instructions. NK cell purity and phenotype was assessed by trypan Blue and flow cytometry using the following antibody cocktail: anti-CD56PE, CD3 APC, and viability was determined using staining with Trypan Blue exclusion dye, and by flow cytometry using Near Infra-Red Fixable viability dye (Thermo Fisher). […]
Purity and viability of NK cells and CIML NK cells: Among other things, the present disclosure provides highly pure and viable NK cell populations following isolation from PBMC. […] After an overnight incubation, purity and viability were assessed in the cultured cell populations. […]
(§2) NK cell fratricide (death directed at NK cells in the same culture) was assessed by flow cytometry following a 2 hr incubation with the CD38 ARM at indicated concentrations in the presence or absence of 500 μg/ml intravenous immune globulin (IVIG). […]

[4] = tested on: CIML NK cells; test: CIML NK cell fratricide assay; assay type: cell-based; conditions: CIML NK cells; 3 μg/ml or 20.1 nM; 2 hours post-incubation
Protocol: as §1
NK cell isolation: PBMC were centrifuged at 400 g for 10 min and re-suspended in EasySep buffer. NK cells were isolated using NK cell isolation kits from STEMCELL Technologies according to kit's manufacturers' instructions. NK cell purity and phenotype was assessed by trypan Blue and flow cytometry using the following antibody cocktail: anti-CD56PE, CD3 APC, and viability was determined using staining with Trypan Blue exclusion dye, and by flow cytometry using Near Infra-Red Fixable viability dye (Thermo Fisher).
CIML NK cell generation: Isolated NK cells were re-suspended at 2×10^6 cells/ml in XVIVO 10% Human Serum and the following concentrations IL-15 (50 ng/ml), IL-12 (10 ng/ml), IL-18(50 ng/ml) for 12 to 18 hrs. […]
as §2

CC(C)C[C@@H]1NC(=O)[C@H](Cc2c[nH]cn2)NC(=O)[C@H](Cc2c[nH]c3ccccc23)NC(=O)[C@H](C)NC(=O)[C@@H](NC(=O)[C@H](CC(=O)O)NC(=O)CCOCCOCCOCCOCCOCCOCCOCCOCc2cn(CCCC[C@H](NC(=O)N[C@@H](CCC(=O)O)C(=O)O)C(=O)O)nn2)CSSC[C@@H](C(=O)N[C@H](C(=O)O)[C@@H](C)O)NC(=O)[C@H](Cc2c[nH]c3ccccc23)NC(=O)[C@H](C(C)C)NC(=O)[C@H](CC(C)C)NC(=O)[C@H](CCC(=O)O)NC(=O)CNC1=O [Compound I-11]
Luminescence (background substracted) ([1]; I-11 3.2 nM, IgG1 FC (20 nM)): 165.5 and 123.5 | Luminescence (background substracted) ([1]; I-11 3.2 nM, IgG1 FC (200 nM)): 172 and 189 | Luminescence (background substracted) ([1]; I-11 3.2 nM, anti-DNP (20 ug/mL)): 128.5 and 86.5 | Luminescence (background substracted) ([1]; I-11 16 nM, IgG1 FC (20 nM)): 667.5 and 621.5 | Luminescence (background substracted) ([1]; I-11 16 nM, IgG1 FC (200 nM)): 1216 and 1040 | Luminescence (background substracted) ([1]; I-11 16 nM, anti-DNP (20 ug/mL)): 934.5 and 855.5 | Luminescence (background substracted) ([1]; I-11 80 nM, IgG1 FC (20 nM)): 1251.5 and 1037.5 | Luminescence (background substracted) ([1]; I-11 80 nM, IgG1 FC (200 nM)): 1708 and 1823 | Luminescence (background substracted) ([1]; I-11 80 nM, anti-DNP (20 ug/mL)): 1635.5 and 1605.5 | Luminescence (background substracted) ([1]; I-11 400 nM, IgG1 FC (20 nM)): 797.5 and 679.5 | Luminescence (background substracted) ([1]; I-11 400 nM, IgG1 FC (200 nM)): 1827 and 1494 | Luminescence (background substracted) ([1]; I-11 400 nM, anti-DNP (20 ug/mL)): 1842.5 and 1696.5 | Luminescence (background substracted) ([1]; I-11 2000 nM, IgG1 FC (20 nM)): 151.5 and 163.5 | Luminescence (background substracted) ([1]; I-11 2000 nM, IgG1 FC (200 nM)): 1372 and 1118 | Luminescence (background substracted) ([1]; I-11 2000 nM, anti-DNP (20 ug/mL)): 1374.5 and 1253.5 | EC50 [2]: 6.6 nM

CC(C)C[C@@H]1NC(=O)[C@H](Cc2c[nH]cn2)NC(=O)[C@H](Cc2c[nH]c3ccccc23)NC(=O)[C@H](C)NC(=O)[C@@H](NC(=O)[C@@H](N)CC(=O)O)CSSC[C@@H](C(=O)N[C@H](C(=O)NCCOCCOCCOCCOCCOCCOCCOCCOCc2cn(CCCC[C@H](NC(=O)N[C@@H](CCC(=O)O)C(=O)O)C(=O)O)nn2)[C@@H](C)O)NC(=O)[C@H](Cc2c[nH]c3ccccc23)NC(=O)[C@H](C(C)C)NC(=O)[C@H](CC(C)C)NC(=O)[C@H](CCC(=O)O)NC(=O)CNC1=O [Compound I-16]
EC50 [2]: 7.4 nM

CC(C)C[C@@H]1NC(=O)[C@H](Cc2c[nH]cn2)NC(=O)[C@H](Cc2c[nH]c3ccccc23)NC(=O)[C@H](C)NC(=O)[C@@H](NC(=O)[C@H](CC(=O)O)NC(=O)CCOCCOCCOCCOCCOCCOCc2cn(CCCC[C@H](NC(=O)N[C@@H](CCC(=O)O)C(=O)O)C(=O)O)nn2)CSSC[C@@H](C(=O)N[C@H](C(=O)O)[C@@H](C)O)NC(=O)[C@H](Cc2c[nH]c3ccccc23)NC(=O)[C@H](C(C)C)NC(=O)[C@H](CC(C)C)NC(=O)[C@H](CCC(=O)O)NC(=O)CNC1=O [Compound I-33]
EC50 [2]: 3 nM

CC(C)C[C@@H]1NC(=O)[C@H](Cc2c[nH]cn2)NC(=O)[C@H](Cc2c[nH]c3ccccc23)NC(=O)[C@H](C)NC(=O)[C@@H](NC(=O)[C@H](CC(=O)O)NC(=O)CCOCCOCCOCCOCCOCCOCCOCCOCc2cn(CCCC[C@H](NC(=O)N[C@@H](CCC(=O)O)C(=O)O)C(=O)O)nn2)CSSC[C@@H](C(=O)N[C@H](C(=O)O)[C@@H](C)O)NC(=O)[C@H](Cc2c[nH]c3ccccc23)NC(=O)[C@H](C(C)C)NC(=O)[C@H](CC(C)C)NC(=O)[C@H](CCC(=O)O)NC(=O)CNC1=O [Compound I-34]
EC50 [2]: 8.7 nM

daratumumab [reference compound]
total increase in dead NK cells over DMSO treated control [3]: 5.6% | increase in the percentage of dead NK cells [4]: 4%
